Measured values taken from paper PMC8955829, “Drug Discovery of New Anti-Inflammatory Compounds by Targeting Cyclooxygenases” (Pharmaceuticals, 2022).
Several values for one entry are separate records, joined by “and”; a condition that tells them apart may be missing. Identical values can stand only once.

Experiments:
[1] = system: carrageenan-induced rat paw edema; assay: Carrageenan-induced paw edema in rats; assay type: in vivo; settings: 10 mg/kg orally; for rat paw edema size: evaluated for 5 h, Figure 3; for rat paw edema: after 1 h of dosing
Description: The carrageenan-induced paw edema model was used to evaluate the compounds’ anti-inflammatory activity. Only carrageenan was given to the control animals. The treatment effect was tracked by observing the improvement of rat paw edema in response to drug administration. Carrageenan injections caused rat paws to grow from 0.3 cm to 0.8 cm in size.
Following in vitro testing, three compounds with the highest selectivity against COX-2 were chosen for in vivo investigations utilizing the rat paw edema assay. After subcutaneous carrageenan injection into the rodent’s paw, plasma extravasation, tissue proliferation, plasma protein release, and neutrophilic extravasation, all of which are caused by arachidonic acid digestion, produced inflammation. Following the carrageenan infusion, the main phase lasted 2 h. The following process is remodeling, which takes 5 h and begins at the 3rd h. The main stage is distinguished by the appearance of histamine and serotonin. The development of prostaglandins, proteases, and lysosomes causes the second stage of edema. Adult male albino rats weighing 120–150 g were divided into seven groups, each with seven rats, and kept at 25 °C with a 12-h light/dark cycle. Subplantar injection of 0.2 mL of 1% carrageenan solution in 0.9 percent saline into the right hind paw of rats was used to induce swelling and inflammation. To determine the inflammation generated by carrageenan, the Vernier Caliper was used to measure the thickness of rat paws before and after injection. […] Paw edema was measured at 0, 0.5, 1, 2, 3, 4, and 5 h after the drug was administered. The edema inhibition was calculated by calculating the difference in thicknesses between the treated and control groups.

Raw264.7 cells = assay: In vitro cytotoxicity, WST-1 assay; assay type: cell-based, mouse; settings: 1 µM, 24 h, presence or absence of LPS (1 ug/mL)
Method: Raw264.7 cells were used to test the effects of compounds 1, 2, and 3 on cell viability and proliferation. Raw264.7 cells were treated for 24 h in a 96-well plate with compounds (1 µM) in the presence or absence of LPS (1 ug/mL). WST1 reagent was added to each well after treatment and incubated for an additional 2 h. Following that, the OD450/620 ratio was determined. […] However, all compounds had no effect on WST1 values or cell morphology in Raw264.7 cells. Raw264.7 cells in a 96-well plate were treated with our compounds (1 uM) in the presence or absence of LPS (1 ug/mL) for 24 h. After treatment, the WST1 reagent was added into each well and incubated for an additional 2 h. After that, OD450/620 was measured.
Dulbecco’s modified Eagle’s minimum essential medium containing 5% heat-inactivated fetal bovine serum was used to maintain Raw264.7 cells (ATCC). Raw264.7 cells ([…]) in a 96-well plate were treated for 24 h with the indicated compounds at 1 µM or vehicle (DMSO) in the presence or absence of LPS (1 µg/mL) to detect cell viability based on mitochondrial activity. WST-1 solution (Dojindo) was then added to each well and incubated at 37 °C for an additional 2 h. According to a previous study, cell viability was determined using the difference in absorbance at 450 and 620 nm as an indicator [37].

rat paw = assay: Histopathological examination of rat paw (H&E, Masson's trichrome); assay type: in vivo; settings: carrageenan-treated rats
Method: The rats’ paws were collected and washed in a saline solution after the end of rat paw experiment. Specimens were fixed in 10% natural formalin for 2 days before being washed overnight with running water. The cleaned samples were dehydrated in ethyl alcohol at increasing percentages, starting with 70% and ending with absolute alcohol. The samples were cleaned by immersing them in xylol for 2 h. For 3 h at 37 °C, the cleared samples were placed in a sealed jar containing 50% paraffin in xylol. The samples were then soaked in melting paraffin for 2 h at 48 °C before being blocked in hard paraffin and sliced into 5-micron slices. The sections were stained with hematoxylin and eosin (H&E) and Masson’s trichrome. Sections were mounted with Canada balsam and covered with a coverslip in preparation for histological examination.

rat stomach = assay: Histopathological examination of rat stomach / ulcerogenic effect; assay type: in vivo; settings: single dose 20 mg/kg orally
Method: Compounds 1–3 were examined for ulcerogenic effects in the rat stomach after showing anti-inflammatory advantages in a rat paw test. Rats were deprived for 24 h at 25 °C with a 12 h light/dark cycle. Indomethacin was used as a control. All compounds were given in a single dose of 20 mg/kg orally. After 24 h, the rats were slaughtered, and their stomachs were removed and washed with normal saline. Binocular magnification was used to inspect each group’s stomachs for the existence of a gastric lesion on the mucosa. Following that, the stomachs were kept in 10% w/v formalin for histological investigation, as previously described.

COX-2 = molecular target: T1, COX-2 (Homo sapiens, UniProt P35354); assay: COX-2 inhibitor screening assay kit (Cayman); assay type: biochemical; settings: for IC50: three separate experiments
T1 construct: purchased Cayman Chemical (Ann Arbor, MI, USA)
T1 sequence (P35354 18-604): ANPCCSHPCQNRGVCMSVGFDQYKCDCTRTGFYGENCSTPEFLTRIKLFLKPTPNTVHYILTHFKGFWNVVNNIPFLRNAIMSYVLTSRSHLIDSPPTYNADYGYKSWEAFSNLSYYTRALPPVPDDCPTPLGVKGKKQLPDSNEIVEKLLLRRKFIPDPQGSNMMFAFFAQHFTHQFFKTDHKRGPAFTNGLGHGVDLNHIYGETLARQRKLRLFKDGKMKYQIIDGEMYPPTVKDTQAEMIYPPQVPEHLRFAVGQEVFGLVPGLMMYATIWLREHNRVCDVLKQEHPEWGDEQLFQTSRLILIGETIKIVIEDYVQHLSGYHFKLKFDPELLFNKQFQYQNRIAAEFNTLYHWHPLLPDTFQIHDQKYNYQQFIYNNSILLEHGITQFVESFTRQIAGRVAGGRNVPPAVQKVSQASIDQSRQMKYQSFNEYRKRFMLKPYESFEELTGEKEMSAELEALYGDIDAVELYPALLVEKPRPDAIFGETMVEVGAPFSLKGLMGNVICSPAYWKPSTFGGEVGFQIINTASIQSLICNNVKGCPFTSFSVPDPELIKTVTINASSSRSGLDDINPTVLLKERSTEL
Method: The test chemicals’ capacity to inhibit the conversion of arachidonic acid to prostaglandin was determined. In test tubes, 25 mM Tris–HCl, pH 8.0, containing 5 mM EDTA, phenol, and 1 mM hematin, was added. The test compounds were dissolved in dimethyl sulfoxide and added in concentrations ranging from 0.005–200 µM. Dimethyl sulfoxide alone was applied to control test containers. COX-1 or COX-2 enzymes were added to test tubes and preincubated for 10 min at 37 °C. The arachidonic acid substrate was added, and the tubes were incubated at 37 °C for 2 min. The compound immunochemical assay was used to calculate the amount of prostaglandin produced. Three separate experiments were used to calculate the IC50 values. The selectivity index was calculated as follows:(1) Selectivity index=IC50COX−1/IC50COX−2

SMILES	rat paw edema size [1]	effect on WST1 values (cell viability) and cell morphology (Raw264.7 cells)	rat paw histopathology, H&E: edema and inflammatory cell infiltration (rat paw)	rat paw collagen deposition, Masson's Trichrome stain (rat paw; 10× magnification)	rat paw histopathology, H&E (rat paw; 10× magnification)	rat paw histopathology, H&E (rat paw; 40× magnification)	rat stomach collagen deposition, Masson's Trichrome (rat stomach; 10× magnification)	rat stomach histopathology, H&E (rat stomach; 10× magnification)	rat stomach collagen deposition, Masson's Trichrome (rat stomach; 40× magnification)	rat stomach histopathology, H&E (rat stomach; 40× magnification)	rat paw collagen deposition, Masson's stain (rat paw)	SI (selectivity index = IC50 COX-1/IC50 COX-2) (COX-2)	IC50 (COX-2) [nM]	rat stomach collagen deposition, Masson's Trichrome (rat stomach)	rat paw edema [1]
Cc1cccc2[nH]c(C3CCCN(C(=O)c4ccccc4NCC(=O)O)C3)nc12 (stereo not drawn) [Compound 1, [(2-{[3-(4-methyl-1H-benzimidazol-2-yl)piperidin-1-yl]carbonyl}phenyl)amino]acetic acid]	significantly reduced rat paw size	non-cytotoxic	marked improvement in the degree of edema and the inflammatory cell infiltration	slight collagen deposition	significant decrease in the dermal thickness, inflammatory reaction in the deep dermis (black star), and moderate improvements in edema	slight inflammatory reaction (black star) and edema	normal collagen deposition	normal gastric layers	normal collagen deposition	absence of any signs of an inflammatory reaction					
CCOC(=O)c1cn(-c2cc(C#N)ccc2O)cc(Oc2ccccc2)c1=O [Compound 2, ethyl 1-(5-cyano-2-hydroxyphenyl)-4-oxo-5-phenoxy-1,4-dihydropyridine-3-carboxylate]	significantly reduced rat paw size	non-cytotoxic	marked anti-inflammatory effect and a pronounced decline in edema and inflammatory cell invasion	slight collagen deposition	substantial decrease in both the inflammatory reaction (black star) and edema	slight inflammatory reaction (black star) and edema	slight collagen deposition	normal gastric layers	slight collagen deposition	absence of any signs of an inflammatory reaction	lowest				
O=C(O)[C@H]1C[C@@H](C(=O)NC2CC2)CN(C(=O)c2ccc3[nH]nnc3c2)C1 [Compound 3]	significantly reduced rat paw size		weaker action than compounds 1 and 2 manifested by a moderate increase in cell infiltration and edema	significant collagen deposition	significant decrease in the degree of inflammatory reaction (black star) and a moderate decrease in edema	moderate inflammatory reaction (black star) and edema	significant collagen deposition	slight degeneration of gastric layers	significant collagen deposition	absence of any signs of an inflammatory reaction		194.9 and 194.91	60 ± 3	mild increase in collagen deposition	
COc1ccc(CN(Cc2ccc(F)cc2)CC2CCCO2)cc1CO (stereo not drawn) [Compound 4]												36.3	210 ± 10		
COc1cccc(-c2nn(-c3ccccc3)cc2CN(C)CCc2cn[nH]c2)c1 [Compound 5]												132.64	80 ± 9		
O=C(O)CC1COCCN1Cc1cccc(-c2ccccn2)c1 (stereo not drawn) [Compound 6]												190.88	60 ± 75		
O=C(O)COc1ccc(Cl)cc1C1CC(=O)Nc2cc3[nH]ncc3cc21 (stereo not drawn) [Compound 7]												95.068	97 ± 15		
O=C(O)Cc1ccccc1Nc1c(Cl)cccc1Cl [Diclofenac, reference compound]															dramatically reduced rat paw edema
COc1ccc2c(c1)c(CC(=O)O)c(C)n2C(=O)c1ccc(Cl)cc1 [Indomethacin, reference compound]				slight collagen deposition	significant decrease in the degree of inflammatory reaction (black star) and a moderate decrease in edema	slight inflammatory reaction (black star) and edema	significant collagen deposition	slight degeneration of gastric layers	collagen deposition	absence of any signs of an inflammatory reaction				mild increase in collagen deposition	dramatically reduced rat paw edema
